Key:
Progesterone receptor = biological target: T1, Progesterone receptor (Homo sapiens, UniProt P06401)
T1 sequence (P06401 whole entry): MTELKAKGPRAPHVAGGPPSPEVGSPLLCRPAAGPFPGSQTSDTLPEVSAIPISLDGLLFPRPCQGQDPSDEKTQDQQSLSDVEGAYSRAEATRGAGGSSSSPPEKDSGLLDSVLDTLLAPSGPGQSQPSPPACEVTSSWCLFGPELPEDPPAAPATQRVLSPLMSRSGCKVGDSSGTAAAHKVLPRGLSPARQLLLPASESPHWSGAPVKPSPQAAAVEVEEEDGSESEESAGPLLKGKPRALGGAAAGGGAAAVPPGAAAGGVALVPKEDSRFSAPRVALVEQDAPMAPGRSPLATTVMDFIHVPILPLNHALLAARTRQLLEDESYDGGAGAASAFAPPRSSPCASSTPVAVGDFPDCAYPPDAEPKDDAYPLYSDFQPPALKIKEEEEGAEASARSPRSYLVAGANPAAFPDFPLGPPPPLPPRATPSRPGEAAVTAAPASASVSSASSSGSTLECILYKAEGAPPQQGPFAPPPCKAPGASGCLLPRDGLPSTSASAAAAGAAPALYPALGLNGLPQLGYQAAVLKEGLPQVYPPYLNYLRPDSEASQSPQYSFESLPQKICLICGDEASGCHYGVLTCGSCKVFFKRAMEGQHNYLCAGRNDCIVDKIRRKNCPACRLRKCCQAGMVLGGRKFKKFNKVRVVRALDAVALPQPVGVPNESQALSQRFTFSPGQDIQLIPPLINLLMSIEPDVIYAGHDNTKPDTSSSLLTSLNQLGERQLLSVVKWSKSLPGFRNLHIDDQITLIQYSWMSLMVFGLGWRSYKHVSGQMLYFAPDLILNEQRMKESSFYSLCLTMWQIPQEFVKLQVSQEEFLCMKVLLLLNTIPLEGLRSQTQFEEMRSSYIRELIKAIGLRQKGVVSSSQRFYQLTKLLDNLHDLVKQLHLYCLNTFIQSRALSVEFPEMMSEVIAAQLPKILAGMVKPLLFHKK

[1] = biological target: cGMP-inhibited 3',5'-cyclic phosphodiesterase 3A (Homo sapiens, UniProt Q14432); assay type: functional
[2] = biological target: Sodium-dependent noradrenaline transporter (Homo sapiens, UniProt P23975)
[3] = biological target: Prostaglandin G/H synthase 1 (Homo sapiens, UniProt P23219); assay type: functional
[4] = biological target: T2, Alpha-1A adrenergic receptor (Homo sapiens, UniProt P35348); assay type: functional, cell-based
T2 sequence (P35348 whole entry): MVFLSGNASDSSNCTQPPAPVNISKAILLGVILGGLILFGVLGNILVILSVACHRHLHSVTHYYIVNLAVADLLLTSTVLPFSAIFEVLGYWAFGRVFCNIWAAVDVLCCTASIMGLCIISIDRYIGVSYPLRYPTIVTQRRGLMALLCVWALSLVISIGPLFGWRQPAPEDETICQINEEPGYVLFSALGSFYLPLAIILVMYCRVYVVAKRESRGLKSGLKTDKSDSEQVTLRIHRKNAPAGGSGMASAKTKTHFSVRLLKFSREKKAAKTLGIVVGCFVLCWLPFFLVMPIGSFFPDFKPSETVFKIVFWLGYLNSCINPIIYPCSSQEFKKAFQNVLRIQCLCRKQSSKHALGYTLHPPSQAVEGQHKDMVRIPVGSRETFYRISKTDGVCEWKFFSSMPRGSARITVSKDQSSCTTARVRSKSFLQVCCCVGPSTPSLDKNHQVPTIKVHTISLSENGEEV

[5] = biological target: T3, 5-hydroxytryptamine receptor 1A (Homo sapiens, UniProt P08908)
T3 sequence (P08908 whole entry): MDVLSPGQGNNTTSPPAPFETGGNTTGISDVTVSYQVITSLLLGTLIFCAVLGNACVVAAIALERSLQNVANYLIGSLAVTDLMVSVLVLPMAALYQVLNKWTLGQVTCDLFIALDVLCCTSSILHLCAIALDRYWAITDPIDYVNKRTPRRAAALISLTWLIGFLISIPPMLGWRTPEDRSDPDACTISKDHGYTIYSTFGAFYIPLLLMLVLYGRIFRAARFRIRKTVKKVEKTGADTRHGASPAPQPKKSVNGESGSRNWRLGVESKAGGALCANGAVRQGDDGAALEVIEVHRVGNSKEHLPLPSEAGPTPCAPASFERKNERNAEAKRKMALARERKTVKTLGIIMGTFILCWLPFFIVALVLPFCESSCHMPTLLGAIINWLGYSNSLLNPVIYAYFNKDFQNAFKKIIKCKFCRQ

[6] = biological target: Sodium-dependent serotonin transporter (Homo sapiens, UniProt P31645)
Thromboxane A2 receptor = biological target: T4, Thromboxane A2 receptor (Homo sapiens, UniProt P21731); assay type: functional, cell-based
T4 sequence (P21731 whole entry): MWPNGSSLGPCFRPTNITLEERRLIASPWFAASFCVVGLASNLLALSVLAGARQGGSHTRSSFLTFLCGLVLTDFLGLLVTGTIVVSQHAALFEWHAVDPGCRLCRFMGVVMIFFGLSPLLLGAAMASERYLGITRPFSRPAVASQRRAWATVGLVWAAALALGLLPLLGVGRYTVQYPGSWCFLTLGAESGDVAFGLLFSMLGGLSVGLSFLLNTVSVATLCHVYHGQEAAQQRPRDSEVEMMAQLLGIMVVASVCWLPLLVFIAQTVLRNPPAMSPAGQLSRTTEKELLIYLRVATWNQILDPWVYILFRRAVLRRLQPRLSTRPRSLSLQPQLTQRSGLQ

[7] = biological target: T5, Amine oxidase [flavin-containing] A (Homo sapiens, UniProt P21397); assay type: functional
T5 sequence (P21397 whole entry): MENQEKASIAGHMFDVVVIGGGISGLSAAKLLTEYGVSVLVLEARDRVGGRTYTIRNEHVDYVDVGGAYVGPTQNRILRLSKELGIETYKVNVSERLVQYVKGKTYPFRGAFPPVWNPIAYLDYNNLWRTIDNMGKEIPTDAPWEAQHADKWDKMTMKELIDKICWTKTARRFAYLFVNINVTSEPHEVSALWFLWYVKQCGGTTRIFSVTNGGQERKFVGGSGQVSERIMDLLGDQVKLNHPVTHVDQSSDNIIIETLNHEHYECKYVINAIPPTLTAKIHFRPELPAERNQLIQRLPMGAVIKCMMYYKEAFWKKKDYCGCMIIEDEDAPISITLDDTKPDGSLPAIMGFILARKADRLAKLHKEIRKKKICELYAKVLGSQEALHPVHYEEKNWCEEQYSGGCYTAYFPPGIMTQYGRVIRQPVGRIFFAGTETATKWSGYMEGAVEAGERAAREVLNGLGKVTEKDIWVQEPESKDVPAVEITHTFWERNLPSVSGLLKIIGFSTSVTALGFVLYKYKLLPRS
Also: assay procedure not described here.

Sequence of Sodium-dependent noradrenaline transporter (P23975 whole entry): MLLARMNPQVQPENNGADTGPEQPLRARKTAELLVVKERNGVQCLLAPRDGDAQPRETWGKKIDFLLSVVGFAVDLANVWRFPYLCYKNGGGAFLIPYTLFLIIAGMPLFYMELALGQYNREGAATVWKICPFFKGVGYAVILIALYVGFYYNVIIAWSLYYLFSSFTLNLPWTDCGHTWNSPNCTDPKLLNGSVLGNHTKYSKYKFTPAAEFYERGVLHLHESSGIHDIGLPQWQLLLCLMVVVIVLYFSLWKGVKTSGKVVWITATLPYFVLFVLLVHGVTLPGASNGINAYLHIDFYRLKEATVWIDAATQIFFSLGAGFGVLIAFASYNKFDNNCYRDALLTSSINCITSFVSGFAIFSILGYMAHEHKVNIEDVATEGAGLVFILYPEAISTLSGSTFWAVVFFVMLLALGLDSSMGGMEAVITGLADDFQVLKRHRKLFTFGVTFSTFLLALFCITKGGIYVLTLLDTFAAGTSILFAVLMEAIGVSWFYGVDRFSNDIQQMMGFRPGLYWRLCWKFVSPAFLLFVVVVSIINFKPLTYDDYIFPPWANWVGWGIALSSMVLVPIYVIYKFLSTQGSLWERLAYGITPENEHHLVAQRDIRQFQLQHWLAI
Sequence of Sodium-dependent serotonin transporter (P31645 whole entry): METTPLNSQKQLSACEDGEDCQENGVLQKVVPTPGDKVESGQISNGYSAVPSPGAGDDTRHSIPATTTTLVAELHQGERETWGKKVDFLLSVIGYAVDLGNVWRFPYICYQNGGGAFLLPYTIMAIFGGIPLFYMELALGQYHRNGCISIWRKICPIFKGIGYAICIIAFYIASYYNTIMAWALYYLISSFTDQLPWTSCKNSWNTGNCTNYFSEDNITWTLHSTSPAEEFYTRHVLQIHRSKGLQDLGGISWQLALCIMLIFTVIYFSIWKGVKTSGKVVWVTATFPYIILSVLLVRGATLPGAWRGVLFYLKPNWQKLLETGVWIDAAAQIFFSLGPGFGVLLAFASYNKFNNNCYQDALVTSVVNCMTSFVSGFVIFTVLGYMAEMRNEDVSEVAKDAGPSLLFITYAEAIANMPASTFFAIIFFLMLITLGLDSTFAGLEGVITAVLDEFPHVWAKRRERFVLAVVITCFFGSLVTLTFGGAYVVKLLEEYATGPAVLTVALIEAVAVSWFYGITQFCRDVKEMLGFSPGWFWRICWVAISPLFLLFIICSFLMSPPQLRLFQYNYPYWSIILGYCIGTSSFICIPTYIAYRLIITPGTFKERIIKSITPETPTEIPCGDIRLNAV
Sequence of cGMP-inhibited 3',5'-cyclic phosphodiesterase 3A (Q14432 whole entry): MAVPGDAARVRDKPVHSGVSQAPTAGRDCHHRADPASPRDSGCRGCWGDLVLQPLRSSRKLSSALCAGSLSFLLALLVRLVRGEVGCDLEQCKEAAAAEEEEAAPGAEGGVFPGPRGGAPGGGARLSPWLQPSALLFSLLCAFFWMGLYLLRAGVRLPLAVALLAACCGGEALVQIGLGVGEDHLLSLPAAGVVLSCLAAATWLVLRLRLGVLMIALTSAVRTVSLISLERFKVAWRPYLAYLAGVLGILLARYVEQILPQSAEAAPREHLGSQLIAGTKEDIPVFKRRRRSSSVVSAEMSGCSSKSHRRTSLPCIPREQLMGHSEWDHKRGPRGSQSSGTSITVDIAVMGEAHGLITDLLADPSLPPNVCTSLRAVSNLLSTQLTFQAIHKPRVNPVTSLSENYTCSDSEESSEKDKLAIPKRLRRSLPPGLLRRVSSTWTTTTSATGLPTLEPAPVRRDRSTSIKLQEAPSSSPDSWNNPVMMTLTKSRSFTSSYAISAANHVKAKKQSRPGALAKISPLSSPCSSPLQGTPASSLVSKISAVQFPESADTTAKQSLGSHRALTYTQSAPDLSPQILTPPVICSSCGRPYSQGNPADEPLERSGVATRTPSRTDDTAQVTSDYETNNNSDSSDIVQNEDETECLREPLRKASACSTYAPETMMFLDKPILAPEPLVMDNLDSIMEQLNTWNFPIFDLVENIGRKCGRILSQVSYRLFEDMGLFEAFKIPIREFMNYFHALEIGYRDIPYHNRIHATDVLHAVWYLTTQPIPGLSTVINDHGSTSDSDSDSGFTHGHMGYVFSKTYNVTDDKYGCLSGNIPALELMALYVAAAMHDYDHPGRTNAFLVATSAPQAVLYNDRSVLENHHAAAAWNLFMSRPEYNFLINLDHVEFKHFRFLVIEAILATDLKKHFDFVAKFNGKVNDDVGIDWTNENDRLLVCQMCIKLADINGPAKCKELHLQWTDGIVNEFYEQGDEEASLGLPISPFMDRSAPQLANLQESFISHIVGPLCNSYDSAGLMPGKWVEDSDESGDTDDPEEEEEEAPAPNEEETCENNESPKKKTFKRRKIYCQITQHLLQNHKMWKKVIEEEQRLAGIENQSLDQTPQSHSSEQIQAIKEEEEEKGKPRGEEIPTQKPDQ
Sequence of Prostaglandin G/H synthase 1 (P23219 whole entry): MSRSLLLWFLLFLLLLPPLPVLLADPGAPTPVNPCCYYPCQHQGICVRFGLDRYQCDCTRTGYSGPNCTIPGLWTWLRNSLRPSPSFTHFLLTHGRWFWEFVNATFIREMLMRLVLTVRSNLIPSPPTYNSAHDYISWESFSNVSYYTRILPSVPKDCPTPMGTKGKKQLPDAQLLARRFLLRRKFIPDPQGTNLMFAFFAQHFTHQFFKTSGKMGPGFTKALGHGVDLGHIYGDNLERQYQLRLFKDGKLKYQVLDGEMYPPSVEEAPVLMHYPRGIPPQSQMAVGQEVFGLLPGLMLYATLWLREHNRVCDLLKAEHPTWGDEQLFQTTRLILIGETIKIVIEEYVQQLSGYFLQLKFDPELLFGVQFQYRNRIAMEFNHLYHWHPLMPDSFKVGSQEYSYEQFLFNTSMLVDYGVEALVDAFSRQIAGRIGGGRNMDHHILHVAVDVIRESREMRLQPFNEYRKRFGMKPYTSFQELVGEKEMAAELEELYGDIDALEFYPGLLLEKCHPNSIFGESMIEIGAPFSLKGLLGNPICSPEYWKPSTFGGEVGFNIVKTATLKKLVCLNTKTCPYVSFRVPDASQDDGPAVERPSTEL

SMILES	AC50 (Progesterone receptor)	AC50 [1]	AC50 [2]	AC50 [3]	AC50 [4]	AC50 [5]	AC50 [6]	AC50 (Thromboxane A2 receptor)	AC50 [7]
NCc1ccccc1CC(=O)N[C@@H]1C(=O)N2C(C(=O)O)=C(CSc3nnnn3CC(=O)O)CS[C@H]12 [CEFORANIDE]	> 30 µM	> 30 µM	> 30 µM	> 30 µM	> 30 µM	> 30 µM	> 30 µM	> 30 µM	> 30 µM
O=C(c1ccc(F)c(F)c1Nc1ccc(I)cc1F)N1CC(O)([C@@H]2CCCCN2)C1 [COBIMETINIB]	> 30 µM	> 30 µM	16.9 µM	> 30 µM	> 30 µM	> 30 µM	7.82 µM	17.6 µM	> 30 µM
NS(=O)(=O)c1cc2c(cc1Cl)NC(C1CC3C=CC1C3)NS2(=O)=O (centres undefined) [CYCLOTHIAZIDE]	> 30 µM	> 30 µM	> 30 µM	> 30 µM	> 30 µM	> 30 µM	> 30 µM	> 30 µM	> 30 µM
Nc1nc(-n2cc(C(=O)O)c(=O)c3cc(F)c(N4CC(O)C4)c(Cl)c32)c(F)cc1F [DELAFLOXACIN]	> 30 µM	> 30 µM	> 30 µM	> 30 µM	> 30 µM	> 30 µM	> 30 µM	> 30 µM	> 30 µM
COc1ccc(-c2cc(=O)c3c(O)cc(O[C@@H]4O[C@H](CO[C@@H]5O[C@@H](C)[C@H](O)[C@@H](O)[C@H]5O)[C@@H](O)[C@H](O)[C@H]4O)cc3o2)cc1O [DIOSMIN]	> 30 µM	> 30 µM	> 30 µM	> 30 µM	> 30 µM	> 30 µM	> 30 µM	> 30 µM	> 30 µM
O=C(Nc1ccccc1)OCC(CN1CCCCC1)OC(=O)Nc1ccccc1 (centres undefined) [DIPERODON]	> 30 µM	> 30 µM	> 30 µM	> 30 µM	> 30 µM	> 30 µM	> 30 µM	> 30 µM	> 30 µM
CCOc1ccc(/C=C2\NCCc3cc(OCC)c(OCC)cc32)cc1OCC [DROTAVERINE]	> 30 µM	> 30 µM	> 30 µM	9.33 µM	> 30 µM	> 30 µM	3 µM	> 30 µM	> 30 µM
Nc1ccc(/N=N/c2ccccc2)c(N)n1 [PHENAZOPYRIDINE]	> 30 µM	20.9 µM	3.85 µM	> 30 µM	–	> 30 µM	> 30 µM	> 30 µM	> 30 µM
COc1cc2c(cc1OC)[C@H]1C[C@@H](OC(=O)[C@@H](N)C(C)C)[C@H](CC(C)C)CN1CC2 [VALBENAZINE]	> 30 µM	> 30 µM	> 30 µM	5.44 µM	> 30 µM	–	> 30 µM	> 30 µM	> 30 µM

From ChEMBL document CHEMBL5291721, “A preclinical secondary pharmacology resource illuminates target-adverse drug reaction associations of marketed drugs” (Nat Commun, 2023)
